Source: patent publication US20220204497A1, “NOVEL COMPOUND HAVING ANTICANCER ACTIVITY, AND METHOD FOR PRODUCING SAME” (MEDICINAL BIOCONVERGENCE RESEARCH CENTER, priority 2019, published 2022)

Key:
A549 cells = assay: Cell viability by MTT method in A549 cells; type: cell-based; set-up: concentration or dose not given beside the values; settings: 72 hours treatment
AIMP2-DX2 = target: T1, AIMP2-DX2 (Homo sapiens, UniProt Q13155); assay: DX2-nanoluciferase assay (DX2 expression change) in transfected A549 cells; settings: for inhibition at 40 µM / inhibition at 10 µM: A549, 4 h; for inhibition at 40 µM: read-out: DX-Nanoluciferase activity (40 μM), 40 μM, 4 hours treatment, A549 cells transfected with nanoluciferase-DX2; for inhibition at 10 µM: read-out: DX-Nanoluciferase activity (10 μM), 10 μM, 4 hours treatment, A549 cells transfected with nanoluciferase-DX2
T1 sequence (Q13155 1-251 isoform Q13155-2): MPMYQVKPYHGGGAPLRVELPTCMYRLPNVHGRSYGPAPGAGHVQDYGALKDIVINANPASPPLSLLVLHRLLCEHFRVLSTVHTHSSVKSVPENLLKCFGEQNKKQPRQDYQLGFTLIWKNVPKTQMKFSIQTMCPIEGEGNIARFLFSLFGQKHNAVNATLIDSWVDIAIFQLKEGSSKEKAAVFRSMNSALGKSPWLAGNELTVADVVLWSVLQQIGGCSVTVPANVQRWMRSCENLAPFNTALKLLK
Method: After cloning DX2 into a plasmid expressing nanoluciferase, the plasmid was transfected into A549 cells. Transfected cells were seeded 1×10^4 per well in a 96-well plate and stabilized for 12 hours. […] Cell viability was measured by the MTT method after 72 hours of treatment with each concentration of the compound in A549 cells.

[1] = inhibitory effect on AIMP2-DX2 expression
[2] = 4 hours treatment, A549 cells transfected with nanoluciferase-DX2

inhibition at 40 µM (AIMP2-DX2; [1])	inhibition at 10 µM (AIMP2-DX2)	DX-Nanoluciferase activity (40 μM) (AIMP2-DX2; 40 μM, 4 hours treatment, A549 cells transfected with nanoluciferase-DX2, inhibitory effect on AIMP2-DX2 expression)	SMILES	Cell Viability (% inhibition) (A549) (A549 cells)	DX-Nanoluciferase activity (10 μM) (AIMP2-DX2; [2])
61.5 ± 5.19%			Cc1ccc(S(=O)(=O)N[C@@H](Cc2c[nH]c3ccccc23)C(=O)Nc2ncc(C)s2)cc1 [Compound 112, (S)-3-(1H-indol-3-yl)-2-(4-methylphenylsulfonamido)-N-(5-methylthiazol-2-yl)propanamide]	15.01 ± 6.55%	
	15.1 ± 6.22%		COC(=O)c1ccc(S(=O)(=O)N[C@@H](Cc2c[nH]c3ccccc23)C(=O)Nc2ccc(N3CCOCC3)cc2)cc1 [Compound 113, (S)-Methyl 4-(N-(3-(1H-indol-3-yl)-1-(4-morpholinophenylamino)-1-oxopropan-2-yl)sulfamoyl)benzoate]	4.67 ± 3.85%	
	3.48 ± 8.58%		CCOC(=O)c1ccc(S(=O)(=O)N[C@@H](Cc2c[nH]c3ccccc23)C(=O)Nc2ccc(N3CCOCC3)cc2)cc1 [Compound 114, (S)-Ethyl 4-(N-(3-(1H-indol-3-yl)-1-(4-morpholinophenylamino)-1-oxopropan-2-yl)sulfamoyl)benzoate]	47.88 ± 0.53%	
	-0.11 ± 15.1%		CNC(=O)c1ccc(S(=O)(=O)N[C@@H](Cc2c[nH]c3ccccc23)C(=O)Nc2ccc(N3CCOCC3)cc2)cc1 [Compound 116, (S)-4-(N-(3-(1H-indol-3-yl)-1-(4-morpholinophenylamino)-1-oxopropan-2-yl)sulfamoyl)-N-methylbenzamide]	34.22 ± 7.94%	
	22.4 ± 11.8%		COc1cc(N2CCOCC2)ccc1NC(=O)[C@H](Cc1c[nH]c2ccccc12)NS(=O)(=O)c1ccc(C)cc1 [Compound 123, (S)-3-(1H-indol-3-yl)-N-(2-methoxy-4-morpholinophenyl)-2-(4-methylphenylsulfonamido)propanamide]	34.01 ± 10.45%	
	20.9 ± 9.8%		Cc1ccc(S(=O)(=O)N[C@@H](Cc2c[nH]c3ccccc23)C(=O)Nc2ccc(N3CCNCC3)cc2)cc1 [Compound 124, (S)-3-(1H-indol-3-yl)-2-(4-methylphenylsulfonamido)-N-(4-(piperazin-1-yl)phenyl)propanamide]	16.44 ± 18.56%	
49.9 ± 1.6%			Cc1ccc(S(=O)(=O)N[C@@H](Cc2c[nH]c3ccccc23)C(=O)OCc2ccccc2)cc1 [Compound 127, (S)-Benzyl 3-(1H-indol-3-yl)-2-(4-methylphenylsulfonamido)propanoate]	94.24 ± 0.54%	
36.8 ± 8.13%			Cc1ccc(C(=O)N[C@@H](Cc2c[nH]c3ccccc23)C(=O)OCc2ccccc2)cc1 [Compound 128, (S)-Benzyl 3-(1H-indol-3-yl)-2-(4-methylbenzamido)propanoate]	63.08 ± 7.72%	
		53.02 ± 9.60	Cc1ccc(C(=O)N[C@@H](Cc2c[nH]c3ccccc23)C(=O)Nc2ccc(N3CCOCC3)cc2)cc1 [Compound 129, (S)—N-(3-(1 Indol-3-yl)-1-(4-morpholinophenylamino)-1-oxopropan-2-yl)-4-methylbenzamide]	60.35 ± 3.98%	
	20.6 ± 3.17%		CC(=O)N1CCN(c2ccc(NC(=O)[C@H](Cc3c[nH]c4ccccc34)NS(=O)(=O)c3ccc(C)cc3)cc2)CC1 [Compound 162, (S)—N-(4-(4-Acetylpiperazin-1-yl)phenyl)-3-(1H-indol-3-yl)-2-(4-methylphenylsulfonamido)propanamide]	19.92 ± 16.25%	
4.04 ± 4.08%			Cc1ccc(S(=O)(=O)N[C@@H](Cc2c[nH]c3ccccc23)C(=O)NC(C)C)cc1 [Compound 180, (S)-3-(1H-indol-3-yl)-N-isopropyl-2-(4-methylphenylsulfonamido)propanamide]	28.20 ± 5.02%	
	68.1 ± 8.2%		COc1ccc(NC(=O)NNC(=O)[C@H](Cc2c[nH]c3ccccc23)NS(=O)(=O)c2ccc(C)cc2)cc1 [Compound 183, (S)-2-(3-(1H-indol-3-yl)-2-(4-methylphenylsulfonamido)propanoyl)-N-(4-methoxyphenyl)hydrazinecarboxamide]	42.25 ± 5.21%	

Continued, compound first:

SMILES	inhibition at 40 µM (AIMP2-DX2; [1])	inhibition at 10 µM (AIMP2-DX2)	DX-Nanoluciferase activity (40 μM) (AIMP2-DX2; 40 μM, 4 hours treatment, A549 cells transfected with nanoluciferase-DX2, inhibitory effect on AIMP2-DX2 expression)	Cell Viability (% inhibition) (A549) (A549 cells)	DX-Nanoluciferase activity (10 μM) (AIMP2-DX2; [2])
Cc1ccc(S(=O)(=O)N[C@@H](Cc2ccc(C(=O)c3ccccc3)cc2)C(=O)Nc2ccc(N3CCOCC3)cc2)cc1 [Compound 115, (S)-3-(4-Benzoylphenyl)-2-(4-methylphenylsulfonamido)-N-(4-morpholinophenyl)propanamide]		2.16 ± 6.66%		0.35 ± 0.67%	
Cc1ccc(S(=O)(=O)N[C@@H](Cc2ccc3ccccc3c2)C(=O)Nc2ccc(N3CCOCC3)cc2)cc1 [Compound 117, (S)-2-(4-Methylphenylsulfonamido)-N-(4-morpholinophenyl)-3-(naphthalen-2-yl)propanamide]		-2.56 ± 9.56%		4.59 ± 6.86%	
CC(C)(C)OC(=O)N[C@@H](Cc1c[nH]c2ccccc12)C(=O)Nc1ccc(N2CCOCC2)cc1 [Compound 118, (S)-tert-Butyl 3-(1H-Indol-3-yl)-1-(4-morpholinophenylamino)-1-oxopropan-2-ylcarbamate]		8.22 ± 5.02%		9.26 ± 7.63%	
Cc1ccc(S(=O)(=O)N[C@@H](Cc2c[nH]c3ccccc23)C(=O)O)cc1 [Compound 119, (S)-3-(1-Indol-3-yl)-2-(4-methylphenylsulfonamido)propanoic acid]				1.59 ± 8.71%	14.92 ± 10.18
COc1cc(N2CCN(C(=O)OC(C)(C)C)CC2)ccc1NC(=O)[C@H](Cc1c[nH]c2ccccc12)NS(=O)(=O)c1ccc(C)cc1 [Compound 120, (S)-tert-Butyl 4-(4-(3-(1H-indol-3-yl)-2-(4-methylphenylsulfonamido)propanamido)-3-methoxyphenyl)piperazine-1-carboxylate]		21.3 ± 14.2%		66.51 ± 1.24%	
COc1cc(N2CCNCC2)ccc1NC(=O)[C@H](Cc1c[nH]c2ccccc12)NS(=O)(=O)c1ccc(C)cc1 [Compound 121, (S)-3-(1H-indol-3-yl)-N-(2-methoxy-4-(piperazin-1-yl)phenyl)-2-(4-methylphenylsulfonamido)propanamide]		41.7 ± 17.3%		51.15 ± 0.5%	
Cc1ccc(S(=O)(=O)N[C@@H](Cc2c[nH]c3ccccc23)C(=O)Nc2ccc(N3CCN(C(=O)OC(C)(C)C)CC3)cc2)cc1 [Compound 122, (S)-tert-Butyl 4-(4-(3-(1H-indol-3-yl)-2-(4-methylphenylsulfonamido)propanamido)phenyl)piperazine-1-carboxylate]		38 ± 1.7%		69.45 ± 1.3%	
Cc1ccc(S(=O)(=O)NCC(=O)N2CCOCC2)cc1 [Compound 155, 4-Methyl-N-(2-morpholino-2-oxoethyl)benzenesulfonamide]	31.3 ± 4.4%			17.30 ± 0.81%	
Cc1ccc(S(=O)(=O)NC2(C(=O)N3CCOCC3)CCCCC2)cc1 [Compound 156, 4-Methyl-N-(1-(morpholine-4-carbonyl)cyclohexyl)benzenesulfonamide]	-0.2 ± 6.6%			13.51 ± 2.04%	
O=C(Nc1ccc(N2CCOCC2)cc1)[C@H](Cc1c[nH]c2ccccc12)NS(=O)(=O)c1ccc(O)cc1 [Compound 158, (S)-2-(4-Hydroxyphenylsulfonamido)-3-(1H-indol-3-yl)-N-(4-morpholinophenyl)propanamide]		-7.04 ± 4.87%		24.87 ± ? .01%	
O=C(O)c1ccc(S(=O)(=O)N[C@@H](Cc2c[nH]c3ccccc23)C(=O)Nc2ccc(N3CCOCC3)cc2)cc1 [Compound 159, (S)-4-(N-(3-(1-indol-3-yl)-1-(4-morpholinophenylamino)-1-oxopropan-2-yl)sulfamoyl)benzoic acid]				24.60 ± ? .96%	1.75 ± 8.96 (10 μM)
N[C@@H](Cc1c[nH]c2ccccc12)C(=O)Nc1ccc(N2CCOCC2)cc1 [Compound 160, (S)-2-Amino-3-(1-indol-3-yl)-N-(4-morpholinophenyl)propanamide]				15.52 ± 9.58%	14.92 ± 17.49 (10 μM)
CC(C)NC(=O)[C@H](Cc1c[nH]c2ccccc12)NS(=O)(=O)c1ccc(Br)cc1 [Compound 181, (S)-2-(4-Bromophenylsulfonamido)-3-(1H-indol-3-yl)-N-isopropylpropanamide]	44.1 ± 2.97%			98.95 ± 0.74%	
COc1ccc(C(=O)NNC(=O)[C@H](Cc2c[nH]c3ccccc23)NS(=O)(=O)c2ccc(C)cc2)cc1 [Compound 182, (S)—N-(3-(1H-indol-3-yl)-1-(2-(4-methoxybenzoyl)hydrazinyl)-1-oxopropan-2-yl)-4-methylbenzenesulfonamide]				0.19 ± 15.38%	69.62 ± 3.16 (10 μM)
Cc1cc(C)n(C(=O)[C@H](Cc2c[nH]c3ccccc23)NS(=O)(=O)c2ccc(Br)cc2)n1 [Compound 184, (S)-4-Bromo-N-(1-(3,5-dimethyl-1H-pyrazol-1-yl)-3-(1H-indol-3-yl)-1-oxopropan-2-yl)benzenesulfonamide]		78.4%		−24.64 ± 2.77%	
